{"source": "patent US10780042B2", "about": "“Cosmetic compositions” (Symrise AG, priority 2015, dated 2020)", "key": {"[1]": {"biological_target": "cyclooxygenase-1 (Homo sapiens, UniProt P23219)", "sequence (P23219 24-599, species assumed)": "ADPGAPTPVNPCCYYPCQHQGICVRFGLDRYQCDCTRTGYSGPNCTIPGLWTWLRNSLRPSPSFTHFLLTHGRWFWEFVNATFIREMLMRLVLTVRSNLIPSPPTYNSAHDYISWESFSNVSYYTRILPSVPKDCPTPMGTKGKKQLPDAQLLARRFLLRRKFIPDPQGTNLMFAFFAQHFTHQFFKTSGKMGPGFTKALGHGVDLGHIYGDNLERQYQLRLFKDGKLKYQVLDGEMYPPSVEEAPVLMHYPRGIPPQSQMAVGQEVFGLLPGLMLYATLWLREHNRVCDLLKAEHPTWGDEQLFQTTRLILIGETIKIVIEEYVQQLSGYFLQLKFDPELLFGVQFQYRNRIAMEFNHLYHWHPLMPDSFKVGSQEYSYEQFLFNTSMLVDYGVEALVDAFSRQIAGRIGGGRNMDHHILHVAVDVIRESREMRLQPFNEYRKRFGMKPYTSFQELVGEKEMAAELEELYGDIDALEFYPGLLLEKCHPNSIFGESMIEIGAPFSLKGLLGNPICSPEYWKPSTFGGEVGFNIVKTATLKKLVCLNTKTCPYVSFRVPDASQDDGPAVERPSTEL", "settings": "described in WO 200 230385 A2 (Henkel); cited from earlier work"}, "[2]": {"biological_target": "T1, 5-lipoxygenase (Homo sapiens, UniProt P09917)", "T1 sequence (P09917 1-674)": "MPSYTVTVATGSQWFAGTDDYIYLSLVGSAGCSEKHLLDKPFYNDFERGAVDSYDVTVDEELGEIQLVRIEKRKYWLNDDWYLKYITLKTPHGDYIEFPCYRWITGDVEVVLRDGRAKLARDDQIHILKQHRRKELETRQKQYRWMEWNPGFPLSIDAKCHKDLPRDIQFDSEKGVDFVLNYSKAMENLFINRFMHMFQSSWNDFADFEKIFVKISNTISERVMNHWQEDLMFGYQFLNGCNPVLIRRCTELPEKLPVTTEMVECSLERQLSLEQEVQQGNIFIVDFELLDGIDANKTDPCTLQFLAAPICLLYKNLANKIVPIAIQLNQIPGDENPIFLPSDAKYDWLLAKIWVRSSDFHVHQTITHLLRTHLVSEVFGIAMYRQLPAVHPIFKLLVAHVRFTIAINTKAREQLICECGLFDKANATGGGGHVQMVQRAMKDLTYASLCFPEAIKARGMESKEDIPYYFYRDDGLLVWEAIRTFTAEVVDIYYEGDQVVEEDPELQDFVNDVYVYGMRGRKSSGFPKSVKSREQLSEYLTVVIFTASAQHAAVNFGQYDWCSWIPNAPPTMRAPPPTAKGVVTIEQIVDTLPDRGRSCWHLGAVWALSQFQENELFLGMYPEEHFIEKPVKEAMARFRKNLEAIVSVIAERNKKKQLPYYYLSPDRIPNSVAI", "settings": "described in WO 200 230385 A2 (Henkel); cited from earlier work"}, "[3]": {"system": "POMC gene expression", "assay": "Particle induced POMC gene expression in human epidermal keratinocytes (qRT-PCR)", "format": "cell-based", "description": "(§1) Gene expression was induced by different model particles. […] The details are set out in Table 1:\n(§2) Gene expression was analyzed via qRT-PCR.\n(§3) Ginger root CO2 extract has been dissolved in DMSO and diluted in medium. […] Gene expression was analyzed via qRT-PCR. […] Table 7 compiles the results for ginger root CO2 extract altered POMC and IL-6 gene expression\n(§4) Purple coneflower pressed juice has been dissolved directly in medium. […] Gene expression was analyzed via qRT-PCR. […] Table 8 compiles the results for purple coneflower pressed juice altered POMC and IL-6 gene expression\n(§5) Gene expression was analyzed via qRT-PCR. […] Table 9 compiles the results for purple coneflower pressed juice altered POMC and IL-6 gene expression"}, "[4]": {"system": "CYP1A1 gene expression", "assay": "Particle induced CYP1A1 gene expression in human epidermal keratinocytes (qRT-PCR)", "format": "cell-based", "settings": "for CYP1A1 Induction mean ± SE: 10 μM BDDI", "description": "as §1, §2"}, "[5]": {"system": "IL-6 gene expression", "assay": "Particle induced IL-6 gene expression in human epidermal keratinocytes (qRT-PCR)", "format": "cell-based", "description": "as §1, §2, §3, §4, §5"}, "[6]": {"biological_target": "T2, AhR (Homo sapiens, UniProt P35869)", "T2 sequence (P35869 11-848)": "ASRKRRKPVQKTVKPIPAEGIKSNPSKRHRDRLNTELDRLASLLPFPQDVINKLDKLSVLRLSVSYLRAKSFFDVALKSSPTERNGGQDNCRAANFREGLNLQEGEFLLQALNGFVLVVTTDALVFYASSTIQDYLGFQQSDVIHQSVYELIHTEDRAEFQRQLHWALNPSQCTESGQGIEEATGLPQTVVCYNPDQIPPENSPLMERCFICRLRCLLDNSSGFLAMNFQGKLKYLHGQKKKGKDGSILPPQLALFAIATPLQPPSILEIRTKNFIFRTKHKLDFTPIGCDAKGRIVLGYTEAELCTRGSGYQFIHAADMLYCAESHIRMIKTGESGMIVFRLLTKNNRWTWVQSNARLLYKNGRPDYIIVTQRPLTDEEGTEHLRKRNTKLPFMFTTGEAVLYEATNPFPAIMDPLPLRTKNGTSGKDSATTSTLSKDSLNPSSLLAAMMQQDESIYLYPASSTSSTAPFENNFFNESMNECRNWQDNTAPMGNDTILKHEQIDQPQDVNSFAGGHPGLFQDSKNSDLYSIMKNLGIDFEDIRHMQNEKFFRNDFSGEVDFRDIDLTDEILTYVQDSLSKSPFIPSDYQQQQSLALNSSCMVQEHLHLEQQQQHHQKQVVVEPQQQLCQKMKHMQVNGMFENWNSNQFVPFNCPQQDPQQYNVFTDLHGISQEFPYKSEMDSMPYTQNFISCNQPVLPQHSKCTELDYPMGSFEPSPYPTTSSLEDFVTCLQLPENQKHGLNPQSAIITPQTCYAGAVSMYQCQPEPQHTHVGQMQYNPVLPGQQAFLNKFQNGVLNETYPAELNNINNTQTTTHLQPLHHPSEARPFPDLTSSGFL", "settings": "stated as known; cited from earlier work"}, "[7]": {"system": "MMP1 gene expression", "assay": "Particle induced MMP1 gene expression in human epidermal keratinocytes (qRT-PCR)", "format": "cell-based", "description": "as §1, §2"}}, "data": [{"compound": "CC1(C)CCC[C@]2(C)C3CC(=O)O[C@]3(C)CC[C@@H]12", "note": "(stereo partly drawn) [Sclareolide, (3aR,5aS,9aS,9bR)-decahydro-3a,6,6,9a-tetramethyl-naphtha[2,1-b]furan-2(1H)-one]", "values": [{"measurement": "inhibition of cyclooxygenase-1 activity (in words)", "setting": "[1]", "result": "inhibition"}, {"measurement": "inhibition of 5-lipoxygenase (in words)", "setting": "[2]", "result": "inhibition"}, {"measurement": "inhibition of particle induced POMC gene expression (in words)", "setting": "[3]", "result": "capable to inhibit"}]}, {"compound": "C=C[C@](C)(O)CC[C@@H]1[C@@]2(C)CCCC(C)(C)[C@@H]2CC[C@@]1(C)O", "note": "[sclareol, reference compound]", "values": [{"measurement": "inhibition of cyclooxygenase-1 activity (in words)", "setting": "[1]", "result": "inhibition"}, {"measurement": "inhibition of 5-lipoxygenase (in words)", "setting": "[2]", "result": "inhibition"}]}, {"compound": "E/Z-2-benzylindene-5,6-dimethoxy-3,3-dimethylindan-1-one [BDDI]", "values": [{"measurement": "CYP1A1 Induction mean ± SE", "setting": "[4]; NHEK adult, 6 h, SRM1650 1.5 μg/cm2, untreated = 1, particles alone 2.90", "result": "0.02 ± 0.00"}, {"measurement": "CYP1A1 Induction mean ± SE", "setting": "[4]; NHEK adult, 6 h, SRM2975 1.5 μg/cm2, untreated = 1, particles alone 1.03", "result": "0.20 ± 0.00"}, {"measurement": "CYP1A1 Induction mean ± SE", "setting": "[4]; NHEK adult, 24 h, SRM2975 1.5 μg/cm2, untreated = 1, particles alone 4.90", "result": "0.01 ± 0.00"}, {"measurement": "inhibition of particle induced Cyp1A1 gene expression (in words)", "setting": "[4]; indoor as well as outdoor model particles", "result": "capable to inhibit"}, {"measurement": "CYP1A1 Induction mean ± SE", "setting": "[4]; indoor particles Huber990 1.5 μg/cm2, 6 h, untreated = 1, particles alone 2.70", "result": "0.05 ± 0.00"}, {"measurement": "CYP1A1 Induction mean ± SE", "setting": "[4]; indoor particles Huber990 1.5 μg/cm2, 24 h, untreated = 1, particles alone 2.90", "result": "0.20 ± 0.00"}, {"measurement": "inhibition of particle induced IL-6 gene expression (in words)", "setting": "[5]", "result": "capable to inhibit"}, {"measurement": "upregulation of the AhR by UVB radiation (in words)", "setting": "[6]", "result": "prevent the upregulation"}, {"measurement": "inhibition of particle induced MMP1 gene expression (in words)", "setting": "[7]", "result": "capable to inhibit"}, {"measurement": "inhibition of particle induced POMC gene expression (in words)", "setting": "[3]", "result": "capable to inhibit"}]}]}
